This experiment deals with human corneal epithelial cells. Nature of the experiment: Proliferation assay, PDGF-stimulated corneal epithelial proliferation (Example 1). As to conditions: for IC50: Homo sapiens, Corneal epithelial cell, 10 ng/ml PDGF, 72 hours. It counts as cell-based. How it is done: Primary isolated human corneal epithelial cells; Normal, Human cells (ATCC® PCS-700-010™) were maintained in culture at 37° C. with 5% CO2 and 95% humidity in serum reduced (5% fetal calf serum) modified promocell media (MPM) supplemented with 4 ng/ml fibronectin (FN), 2 ng/ml human recombinant vascular endothelial growth factor (VEGF) and 4 ng/ml basic fibroblast growth factor (bFGF).
Corneal cells were harvested by trypsinization at 37° C. and neutralized with trypsin-neutralizing solution. A suspension of 50,000 cells in MPM/DMEM was added to 25 ml flasks. The cells were incubated with phenylcapsaicin or SU9518 for 1 hour in cytokine-free medium at standard conditions and incubated for another 72 hours in the presence of final mediums (either with 10 ng/ml PDGF-AB+4 ng/ml FN, or with 2 ng/ml VEGF+4 ng/ml bFGF+4 ng/ml FN). The cells were then dispersed in trypsin, resuspended, and counted in a coulter counter.

Results on one molecule are retold here after patent publication US20240277637A1, “CAPSAICIN DERIVATIVES IN THE TREATMENT OF IDIOPATHIC PULMONARY FIBROSIS” (aXichem AB, priority 2021, published 2024).

Like-named read-outs stand apart in the source and are kept apart here.

Turning to `COc1cc(CNC(=O)CCCCC#Cc2ccccc2)ccc1O` [Compound 2, N-(4-hydroxy-3-methoxybenzyl)-7-phenylhept-6-ynamide], the IC50 reads like this: (read-out: IC50, PDGF-induced epithelial proliferation) approximately 1000 nM; (read-out: IC50, PDGF-induced proliferation) approximately 1000 nM. In addition, the “selectivity for PDGF pathway” value (PDGF- versus VEGF+bFGF-induced proliferation, corneal cells) is “work selectively on the PDGF pathway”.
